The text below walks through data of patent publication US11124510B2, “Alkyl chain modified imidazoquinoline TLR7/8 agonist compounds and uses thereof” (Dynavax Technologies Corporation, priority 2017, dated 2021).

Test [1] concerns serum IL-6 and IL-12p40. Description: In vivo systemic immune activation assay: serum IL-6 and IL-12p40 by ELISA after single subcutaneous injection. Also on record: species or system mice. The conditions noted are these: for serum IL-6 / serum IL-12p40: 5 μg subcutaneously in footpad, 95% sesame oil/5% ethanol, ± SEM. The method, then:
Small molecule TLR7 and TLR7/8 agonists derived from the 1H-imidazo[4,5-c]quinoline privileged template (see e.g., Imiquimod, Resiquimod) are known to rapidly distribute to the systemic compartment following intratumoral, subcutaneous, or intramuscular injection. Broad systemic distribution of these agonist compounds in wild-type mice induces TLR7-dependent cytokine responses, primarily in spleen and liver cells, which can subsequently be detected in the serum within 3-6 hours. The rapid increase in serum cytokine biomarkers (e.g., IL-6 and IL-12p40) can be used to assess the kinetics of systemic distribution of a locally administered TLR agonist.
The kinetics of distribution of pharmaceutical compositions comprised of Compound Nos. 63-00, 63-17, or 63-10 formulated in 95% sesame oil/5% ethanol (v/v) were assessed following a single subcutaneous injection in wild-type mice. All in vivo procedures were conducted in accordance with approved Institutional Animal Care and Use Committee (IACUC) protocols. The animals were housed in a facility that is accredited by the Association for Accreditation and Laboratory Animal Care (AALAC, Frederick Md.). Wild-type female BALB/c mice (15-20 gm) were obtained from Envigo (Hayward, Calif.) and acclimated for 2-3 days prior to use.
The pharmaceutical compositions were made with the three compounds, at a final concentration of 200 μg/mL, in a manner similar to that described in Example B2-1. At T=0, groups of 3 mice were anesthetized with 1% isoflurane and injected subcutaneously in the right footpad with 5 μg of each of the three compounds, or a vehicle control, in 25 uL of 95% sesame oil/5% ethanol (v/v). Then, at T=3, 6, and 24 hours, three animals from each group were anesthetized with 1% isoflurane to facilitate blood collection by cardiac puncture. Samples were processed to serum, and stored at −20° C. for further analysis.

The target of test [2] is TLR7 (Homo sapiens (Human), UniProt Q9NYK1). Nature of the test: TLR7 agonist bioactivity: induction of IFNα protein in pDC-enriched PBMC cultures (ELISA, 24 h). The class given is cell-based. The conditions noted are these: less potent than IMDQ. The method, then:
Plasmacytoid dendritic cell (pDC)—enriched peripheral blood mononuclear cells (PBMCs) were prepared from the blood of a series of human donors (3-5 donors/experiment). PBMCs were isolated using Ficoll-Paque Premium® (GE Healthcare, Chicago Ill.) using methods well known to those in the art. pDCs were magnetically isolated from the total recovered PBMC population using CD304 (BDCA-4/Neuropilin-1) microbeads (Miltenyi Biotec, San Diego Calif.), according to the manufacturer's instructions. Isolated pDCs were then added back to between 1 and 2×10^8 of the corresponding donor's PBMCs for relative enrichment of this cell type. […] Culture supernatants were collected and interferon-alpha (IFNα) protein levels were measured by ELISA (MabTech, Cincinnati Ohio), according to the manufacturer's instructions.
Background: ELISA stands for enzyme-linked immunosorbent assay.

In test [3] the test system is CT26 colon carcinoma. Description: Anti-tumor efficacy, repeated intratumoral dosing in CT26 colon carcinoma-bearing wild-type mice. The format is in vivo. The following applies: 0.5-20 μg in 95% sesame oil/5% ethanol. The method, then: The effect of repeated weekly doses of intratumorally delivered pharmaceutical compositions comprised of Compound No. 63-10, 63-18, or 63-33 formulated in 95% sesame oil/5% ethanol (v/v) on tumor growth inhibition was assessed in syngeneic CT26 colon carcinoma-bearing Balb/c mice. All in vivo procedures were conducted in accordance with approved Institutional Animal Care and Use Committee (IACUC) protocols. The animals were housed in a facility that is accredited by the Association for Accreditation and Laboratory Animal Care (AALAC, Frederick, Md.). Wild-type female Balb/c mice (15-20 gm) were obtained from Envigo (Hayward, Calif.) and acclimated for 2-3 days prior to use.
The pharmaceutical compositions were made with the three compounds at final concentrations of 5, 50, and 200 μg/mL in a manner similar to that described in Example B2-1. […] On day 0, mice were anesthetized with 1% isoflurane and 80,000 CT26 tumor cells in 200 uL of RMPI-1640 culture media plus 2.5% fetal bovine serum were injected subcutaneously in the right flank. Tumors were allowed to grow until they were ˜35 mm^3, at which point animals were assigned to groups to begin treatment. Mice were injected weekly for 4 weeks intratumorally with 100 uL of a pharmaceutical composition comprising 20, 5, or 0.5 μgs of Compound No. 63-10, or 20 or 5 μgs of Compound Nos. 63-18, or 63-33 formulated in 95% sesame oil/5% ethanol (v/v), or a vehicle control, twice weekly for 3 weeks (experimental days 9, 12, 16, 19, 23, and 26). The TLR9 CpG agonist was injected intratumorally with 100 μL of a pharmaceutical composition comprised of 50 μgs of compound formulated in phosphate buffered saline on the same dosing schedule. Tumor sizes were measured twice weekly from days 8 through day 30 with calipers, with tumor volumes calculated using the formula: length, multiplied by width, multiplied by width, divided by 2.

Test [4] has as its target TLR8 (Homo sapiens (Human), UniProt Q9NR97). Description: TLR8 agonist bioactivity: induction of TNFα protein in monocyte cultures (ELISA, 24 h). The format is cell-based. The method, then:
Monocytes were magnetically isolated from PBMCs, prepared as described above, following labeling with CD14 microbeads (Miltenyi Biotec, San Diego Calif.), according to the manufacturer's instructions. […] Culture supernatants were collected and tumor necrosis factor alpha (TNFα) protein levels were measured by ELISA (MabTech, Cincinnati Ohio), according to the manufacturer's instructions.

Test [5] deals with CT26 colon carcinoma. Nature of the test: Anti-tumor efficacy in combination with anti-PD-1 antibody in dual flank CT26 colon carcinoma-bearing mice. The class given is in vivo. The following applies: 5,000 ng single intratumoral dose day 14, in combination with anti-PD-1. The method, then: All in vivo procedures were conducted in accordance with approved IACUC protocols. The animals were housed in a facility that is accredited by the AALAC. Wild-type female Balb/c mice (15-20 g) were obtained from Envigo (Hayward, Calif.) and acclimated for 2-3 days prior to use.
The pharmaceutical compositions were made using Compound No. 63-10 or 63-33 at final concentrations of 50,000 ng/mL in a manner similar to that described for Example B2-1. […] On day 0, mice were anesthetized with 1% isoflurane, and 80,000 CT26 tumor cells in 200 uL of RMPI-1640 culture media plus 2.5% fetal bovine serum were injected subcutaneously in both the right and left flanks. Tumors (left and right) were allowed to grow until day 8, when the right and left flank tumor sizes had reached approximately 35 mm^3, at which point mice were injected intraperitoneally with 250 μg of anti-PD-1 antibody formulated in phosphate buffered saline or a phosphate buffered saline vehicle control. The anti-PD-1 treatments were repeated on experimental days 12, 15, 19, 22, and 26. On experimental day 14, when the right (injected) and left (distal) flank tumors had reached approximately 100 mm^3, mice were randomized into treatment groups. […] Tumor sizes were measured twice weekly from days 14 through day 29 with calipers, with tumor volumes calculated using the formula: length, multiplied by width, multiplied by width, divided by 2.

SMILES strings stand for the structures.

TLR8, sequence (Q9NR97 27-1041): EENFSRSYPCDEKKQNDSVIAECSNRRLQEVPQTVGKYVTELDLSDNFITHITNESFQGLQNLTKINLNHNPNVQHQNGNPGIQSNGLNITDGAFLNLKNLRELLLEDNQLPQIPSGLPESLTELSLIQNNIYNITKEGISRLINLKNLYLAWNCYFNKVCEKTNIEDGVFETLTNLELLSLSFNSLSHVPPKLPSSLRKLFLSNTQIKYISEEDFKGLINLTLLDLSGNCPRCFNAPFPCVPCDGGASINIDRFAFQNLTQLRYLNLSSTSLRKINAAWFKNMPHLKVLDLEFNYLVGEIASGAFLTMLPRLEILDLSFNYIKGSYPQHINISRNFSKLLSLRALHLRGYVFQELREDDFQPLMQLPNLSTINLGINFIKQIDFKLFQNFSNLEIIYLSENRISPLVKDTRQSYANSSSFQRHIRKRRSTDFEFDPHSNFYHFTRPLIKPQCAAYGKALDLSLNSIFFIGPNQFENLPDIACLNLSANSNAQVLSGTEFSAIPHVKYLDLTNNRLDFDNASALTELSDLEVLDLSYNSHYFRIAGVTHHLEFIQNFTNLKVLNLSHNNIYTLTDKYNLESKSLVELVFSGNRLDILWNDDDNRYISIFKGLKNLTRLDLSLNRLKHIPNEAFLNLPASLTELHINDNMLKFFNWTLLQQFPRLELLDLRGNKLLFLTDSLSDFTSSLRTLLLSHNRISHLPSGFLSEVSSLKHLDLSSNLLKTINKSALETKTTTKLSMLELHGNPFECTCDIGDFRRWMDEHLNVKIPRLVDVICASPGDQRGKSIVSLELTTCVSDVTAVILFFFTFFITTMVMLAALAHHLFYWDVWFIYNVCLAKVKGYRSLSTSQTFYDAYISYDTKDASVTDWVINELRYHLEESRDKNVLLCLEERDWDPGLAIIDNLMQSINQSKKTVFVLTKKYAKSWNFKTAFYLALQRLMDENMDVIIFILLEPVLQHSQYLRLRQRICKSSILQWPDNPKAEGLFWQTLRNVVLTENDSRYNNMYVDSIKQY
TLR7, sequence (Q9NYK1 27-1049): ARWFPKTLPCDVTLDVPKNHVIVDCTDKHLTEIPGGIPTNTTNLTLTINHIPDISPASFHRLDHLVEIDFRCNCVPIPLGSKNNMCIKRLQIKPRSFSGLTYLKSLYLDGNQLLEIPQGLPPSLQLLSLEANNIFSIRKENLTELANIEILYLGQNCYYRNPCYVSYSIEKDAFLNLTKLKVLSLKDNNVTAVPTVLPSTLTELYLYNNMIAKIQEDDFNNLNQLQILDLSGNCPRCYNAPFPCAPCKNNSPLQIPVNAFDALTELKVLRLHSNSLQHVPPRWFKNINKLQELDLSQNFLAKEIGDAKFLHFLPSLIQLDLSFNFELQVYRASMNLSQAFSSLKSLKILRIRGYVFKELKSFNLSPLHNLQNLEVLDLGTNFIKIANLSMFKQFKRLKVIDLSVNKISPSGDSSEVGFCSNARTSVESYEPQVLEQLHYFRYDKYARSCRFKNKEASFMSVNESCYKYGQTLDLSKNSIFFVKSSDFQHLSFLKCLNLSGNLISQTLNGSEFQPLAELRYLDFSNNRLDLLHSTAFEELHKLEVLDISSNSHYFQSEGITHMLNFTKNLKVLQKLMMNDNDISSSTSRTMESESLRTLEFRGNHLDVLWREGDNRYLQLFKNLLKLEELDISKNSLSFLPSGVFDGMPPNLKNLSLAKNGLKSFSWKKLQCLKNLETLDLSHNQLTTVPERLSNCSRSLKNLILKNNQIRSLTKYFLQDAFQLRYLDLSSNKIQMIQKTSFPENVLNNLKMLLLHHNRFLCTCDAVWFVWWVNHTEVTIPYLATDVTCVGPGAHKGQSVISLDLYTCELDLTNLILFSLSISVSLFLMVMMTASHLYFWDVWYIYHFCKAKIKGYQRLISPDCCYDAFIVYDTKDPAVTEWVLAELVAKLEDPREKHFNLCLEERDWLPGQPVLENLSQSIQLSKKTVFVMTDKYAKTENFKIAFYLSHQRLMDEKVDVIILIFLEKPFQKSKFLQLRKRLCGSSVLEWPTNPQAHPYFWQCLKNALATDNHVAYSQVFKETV

Usually EC50 stands for the concentration giving half of the maximal effect. Higher therefore signals weaker potency. Take `CCCCCCCCCCCCCC(=O)NCc1ccc(Cn2c(CCCC)nc3c(N)nc4ccccc4c32)cc1` [Compound No. 63-10, N-(4-((4-amino-2-butyl-1H-imidazo[4,5-c]quinolin-1-yl)methyl)benzyl)tetradecanamide]: the results for the “serum IL-6” value in test [1] (3 hours), in test [1] (6 hours) and in test [1] (24 hours) were 49 ± 32 pg/mL, 33 ± 4 pg/mL and 32 ± 2 pg/mL, respectively. Further, the “serum IL-12p40” value in test [1] (3 hours) is given as 1,012±246 pg/mL; in test [1] (6 hours) it was 2,179±597 pg/mL; in test [1] (24 hours), 2,436±237 pg/mL. In test [1] (at 3, 6, or 24 hours, 5 μg subcutaneously), the “increase in serum cytokines” value is “no detectable increase”. Also, the “fold loss of TLR7 agonist potency compared to Compound No. 63-00 (IMDQ)” value in test [2] turned out to be 2 fold. In addition, the “CT26 tumor growth control compared to the vehicle control” value in test [3] is on record as “robust CT26 tumor growth control”. This molecule returned an EC50 in test [4] (TNFα induction, human monocytes, 24 hours) of 522 nM. The “fold loss of TLR8 agonist potency compared to Compound No. 63-00 (IMDQ)” value in test [4] (less potent than IMDQ) is listed as 2.4 fold. For the same molecule, the “tumor growth inhibition in the injected tumor (right flank) compared to the anti-PD-1 treatment alone” value in test [5] is “greater tumor growth inhibition”. In test [5] (day 29), the “tumor growth inhibition in the distal tumor (left flank) compared to the anti-PD-1 treatment alone” value is on record as “no improvement”.
